According to patent US20220169654A1, “New Organic Compounds” (Servier Pharmaceuticals LLC, priority 2020, published 2022):

Assays:
[1] = test system: HCT116 MTAP+/+; assay: Inhibition of cellular proliferation, 4 days, Cell Titer Glo, HCT116 MTAP+/+; format: cell-based; conditions: Homo sapiens, HCT-116, 96 h, IC50 bin with Max Inh., read-out: 4 Day Relative Growth Inhibition (MTAP +/+)
Description: (§1) Test compound impact on cancer cell growth was assessed by treating cancer cells with compound for 4 days and then measuring proliferation using an ATP-based cell proliferation readout (Cell Titer Glo, Promega Corporation).
(§2) In a typical assay an isogenic pair of HCT116 human colon carcinoma cell lines which vary only in MTAP deletion status (HCT116 MTAP+/+ and HCT116 MTAP−/−) were plated in 96-well dishes at appropriate cell density. Following 24 hours, cells were then treated with the candidate MAT2A inhibitor. Prior to addition to cells, the compound was first serially diluted in 100% DMSO, typically as a 3-fold serial dilution starting at 500× top dose with 10 dose points including DMSO only control. Compound was then transferred to a working stock plate in cell culture media by adding 5 μL of compound in DMSO to 495 μL of cell culture media. This working stock was then added to cells via a further 5-fold dilution, by adding 25 μL of working stock to 100 μL of cells in culture media. Following compound addition, cells were incubated at 37° C./5% CO2 for 4 days.
(§3) To measure inhibition of cellular proliferation, cells were allowed to equilibrate to room temperature for 30 minutes, and were then treated with 125 μL of Cell Titer Glo reagent. The plate was then covered with aluminum foil and shaken for 15 minutes to ensure complete mixing and full cell lysis. Luminescent signal was then measured using a plate-based luminometer Veritas version 1.9.2 using ATP standard curve to confirm assay reproducibility from run to run. This luminescence measure was converted to a proliferation index by subtracting from each data point the ATP luminescence signal measured from a bank (no cells) well and dividing by the ATP luminescence signal measured in 0.2% DMSO control well adjusted for signal in blank well. Compound activity was then represented as a percentage change in proliferation relative to a within-plate DMSO control against log 10 of compound concentration in molar (M) units.
(§4) Specific compounds disclosed herein were tested in the foregoing assay and they were determined to inhibit cellular proliferation with an IC50. See, Table 1 below.

[2] = test system: SAM in HCT116 human colon carcinoma cell line with MTAP gene deleted (MTAP −/−); assay: Cellular assay of target engagement (SAM), LC-MS/MS, 72 hrs; format: cell-based; conditions: HCT-116, IC50 bin with Max Inh., read-out: Cell 72 h SAM Inhibition (MTAP −/−)
Description: Measurement of MAT2A activity in cells was made by direct quantitation of the abundance of the product of its enzymatic activity, SAM. Cancer cells were treated with candidate MAT2A inhibitors for a suitable incubation period, and the cells were then lysed using a reagent which quenched any further enzyme activity. Soluble metabolites including SAM were collected and SAM itself was directly measured from the lysate using quantitative LC-MS/MS.
A typical assay was performed using an HCT116 human colon carcinoma cell line which was genetically engineered to delete the MTAP gene (commercially available from Horizon Discovery). This cell line was utilized because it was determined that loss of the MTAP gene predicts sensitivity to MAT2A inhibitors. Cells were plated in 96-well dishes at appropriate cell density. Following 24 hours, cells were then treated with the candidate MAT2A inhibitor. Prior to addition to cells, the compound was first serially diluted in 100% DMSO, typically as a 3-fold serial dilution starting at 500× top dose with 10 dose points including DMSO only control. Compound was then transferred to a working stock plate in cell culture media by adding 5 μL of compound in DMSO to 495 μL of cell culture media. This working stock was then added to cells via a further 5-fold dilution, by adding 25 μL of working stock to 100 μL of cells in culture media. Following compound addition, cells were incubated at 37° C./5% CO2 for 72 hrs.
To quantitate SAM levels following compound treatment, cells were gently washed once in ammonium carbonate buffer (75 mM at pH 7.4), placed on dry ice, and lysed with metabolite extraction buffer (80% cold methanol and 20% water (v/v) with acetic acid at 1M final concentration with 200 ng/mL deuterated d3-SAM as internal control). Following centrifugation at 4° C. at 3,200 rpm for 30 minutes, the supernatant was collected and stored at −80° C. until analysis by Liquid Chromatography with tandem Mass Spectrometry (LC-MS/MS). LC-MS/MS analysis was performed using an API6500 Mass Spectrometer (Sciex, Framingham, Mass., USA) operating in positive ion spray mode and equipped with a Waters UPLC Acquity (Waters, Milford, Mass., USA) BEH Amide column. Multiple Reaction Monitoring data was acquired for SAM and the d3-SAM standard, using a mass transition pair at m/z 399.2→250.1 and 402.2→250.1, respectively. In a typical LC-MS/MS analysis, the initial flow rate was 0.5 ml/min of 25% mobile phase A (acetonitrile and water at 5:95 (v/v) with 1% formic acid and 10 mM ammonium acetate) and 75% mobile phase B (acetonitrile and water at 95:5 (v/v) with 1% formic acid and 10 mM ammonium acetate), 0.2-0.5 minutes with 75%-35% mobile phase B, 25%-65% mobile phase A, at 0.5 min 65% mobile phase A and 35% mobile phase B, 1.0-1.1 minutes with 35%-75% mobile phase B, 65%-25% mobile phase A, at 1.1 min 25% mobile phase A and 75% mobile phase B with a total run time of 1.5 minutes.
Specific compounds disclosed herein were tested in the foregoing assay and they were determined to inhibit SAM with an IC50. See, Table 1 below.

[3] = biological target: T1, MAT2A homodimer (Homo sapiens, UniProt P31153); assay: MAT2A inhibition (biochemical, liberated phosphate, PiColorLock Gold); conditions: recombinant MAT2A homodimer; IC50 bin with Max Inh.; read-out: Enzyme Inhibition Bin
T1 construct: inferred from Ni sepharose purification with imidazole elution; made in house; host or cells: Sf9 insect cells, baculovirus (Bac to Bac, pFASTBAC1)
Outline: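 Baculovirus/Sf9-expressed, Ni-purified MAT2A (4 μg/mL) preincubated with compound 60 min at 25 °C in Tris pH 8.0/KCl/MgCl2 buffer. Reaction started with 500 μM ATP and 400 μM L-methionine (substrate-mix concentrations), run 60 min at 25 °C. Phosphate measured colorimetrically against a phosphate standard curve to give IC50.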

[4] = test system: HCT116 MTAP−/−; assay: Inhibition of cellular proliferation, 4 days, Cell Titer Glo, HCT116 MTAP−/−; format: cell-based; conditions: Homo sapiens, HCT-116, 96 h, IC50 bin with Max Inh., read-out: 4 Day Relative Growth Inhibition (MTAP −/−)
Description: as §1, §2, §3, §4

T1 sequence (P31153 whole entry): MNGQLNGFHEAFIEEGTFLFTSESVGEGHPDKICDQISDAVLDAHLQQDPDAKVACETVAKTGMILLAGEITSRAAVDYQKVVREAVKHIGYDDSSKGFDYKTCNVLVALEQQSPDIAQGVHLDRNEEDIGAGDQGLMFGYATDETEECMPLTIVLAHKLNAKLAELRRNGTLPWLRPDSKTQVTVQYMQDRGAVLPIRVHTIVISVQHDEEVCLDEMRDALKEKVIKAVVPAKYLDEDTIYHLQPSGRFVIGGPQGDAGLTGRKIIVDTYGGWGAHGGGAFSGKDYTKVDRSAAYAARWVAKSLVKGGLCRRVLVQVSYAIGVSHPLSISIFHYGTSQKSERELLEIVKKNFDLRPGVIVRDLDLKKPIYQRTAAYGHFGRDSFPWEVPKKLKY

| SMILES | IC50 [1] [nM] | IC50 [2] [nM] | IC50 [3] [nM] | IC50 [4] [nM] |
| --- | --- | --- | --- | --- |
| Cn1cc2cc(-n3nc4c(C#C[Si](C)(C)C)cn(CC5CC5)c4c(-c4ccc(C5CC5)nc4)c3=O)ccc2n1 [Example 243, 5-(cyclopropylmethyl)-4-(6-cyclopropylpyridin-3-yl)-2-(2-methyl-2H-indazol-5-yl)-7-((trimethylsilyl)ethynyl)-2,5-dihydro-3H-pyrrolo[3,2-c]pyridazin-3-one] | > 1000 | < 100 | < 100 | < 100 |
| Cn1cc2cc(-n3nc4[nH]c(=O)n(CC5CC5)c4c(-c4ccc(C5CC5)nc4)c3=O)ccc2n1 [Example 203, 5-(cyclopropylmethyl)-4-(6-cyclopropylpyridin-3-yl)-2-(2-methyl-2H-indazol-5-yl)-2,7-dihydro-3H-imidazo[4,5-c]pyridazine-3,6(5H)-dione] | 100 to 1000 | < 100 | < 100 | < 100 |
| O=c1c(-c2ccc(OC(F)F)cc2)c2c(ccn2CC2CC2)nn1-c1ccc2ncsc2c1 [Example 224, 2-(benzo[d]thiazol-6-yl)-5-(cyclopropylmethyl)-4-(4-(difluoromethoxy)phenyl)-2,5-dihydro-3H-pyrrolo[3,2-c]pyridazin-3-one] | 100 to 1000 | < 100 | < 100 | < 100 |
| [2H]C([2H])([2H])Oc1ccc(-n2nc3ccn(CC4CC4)c3c(-c3ccc(C)nc3)c2=O)cc1 [Example 134, 5-(cyclopropylmethyl)-2-(4-(methoxy-d3)phenyl)-4-(6-methylpyridin-3-yl)-2,5-dihydro-3H-pyrrolo[3,2-c]pyridazin-3-one] | > 1000 | < 100 | < 100 | 100 to 1000 |
| CC(C)c1ccc(-c2c(=O)n(-c3ccc4nn(C)cc4c3)nc3c(C#N)cn(CC4CC4)c23)cn1 [Example 128, 5-(cyclopropylmethyl)-4-(6-isopropylpyridin-3-yl)-2-(2-methyl-2H-indazol-5-yl)-3-oxo-3,5-dihydro-2H-pyrrolo[3,2-c]pyridazine-7-carbonitrile] | > 1000 | < 100 | < 100 | 100 to 1000 |
| Cn1cc2cc(-n3nc4c(C#N)cn(CC5CC5)c4c(-c4ccc(OC(F)F)cc4)c3=O)ccc2n1 [Example 102, 5-(cyclopropylmethyl)-4-(4-(difluoromethoxy)phenyl)-2-(2-methyl-2H-indazol-5-yl)-3-oxo-3,5-dihydro-2H-pyrrolo[3,2-c]pyridazine-7-carbonitrile] | > 1000 | < 100 | < 100 | < 100 |
| N#Cc1cn(CC2CC2)c2c(-c3ccc(C4CC4)nc3)c(=O)n(-c3ccc4nn(CC5CC5)cc4c3)nc12 [Example 160, 5-(cyclopropylmethyl)-2-(2-(cyclopropylmethyl)-2H-indazol-5-yl)-4-(6-cyclopropylpyridin-3-yl)-3-oxo-3,5-dihydro-2H-pyrrolo[3,2-c]pyridazine-7-carbonitrile] | 100 to 1000 | < 100 | < 100 | < 100 |
| [2H]C([2H])([2H])Oc1ccc(-c2c(=O)n(-c3ccc4nn(C)cc4c3)nc3cnn(CC4CC4)c23)cc1 [Example 220, 1-(cyclopropylmethyl)-7-(4-(methoxy-d3)phenyl)-5-(2-methyl-2H-indazol-5-yl)-1,5-dihydro-6H-pyrazolo[4,3-c]pyridazin-6-one] | 100 to 1000 | < 100 | < 100 | < 100 |
| Cn1cc2cc(-n3nc4c(C#N)cn(CC5CC5)c4c(-c4ccc(C5(C#N)CC5)nc4)c3=O)ccc2n1 [Example 120, 4-(6-(1-cyanocyclopropyl)pyridin-3-yl)-5-(cyclopropylmethyl)-2-(2-methyl-2H-indazol-5-yl)-3-oxo-3,5-dihydro-2H-pyrrolo[3,2-c]pyridazine-7-carbonitrile] | > 1000 | 100 to 1000 | < 100 | > 1000 |
| Cn1cc2cc(-n3nc4ccn(CC5CC5)c4c(-c4ccc(C(N)=O)nc4)c3=O)ccc2n1 [Example 155, 5-(5-(cyclopropylmethyl)-2-(2-methyl-2H-indazol-5-yl)-3-oxo-3,5-dihydro-2H-pyrrolo[3,2-c]pyridazin-4-yl)picolinamide] | > 1000 | 100 to 1000 | < 100 | 100 to 1000 |
| Cn1cc2cc(-n3nc4c(C#CC(F)(F)F)cn(CC5CC5)c4c(-c4ccc(C5CC5)nc4)c3=O)ccc2n1 [Example 245, 5-(cyclopropylmethyl)-4-(6-cyclopropylpyridin-3-yl)-2-(2-methyl-2H-indazol-5-yl)-7-(3,3,3-trifluoroprop-1-yn-1-yl)-2,5-dihydro-3H-pyrrolo[3,2-c]pyridazin-3-one] | > 1000 | > 1000 | < 100 | 100 to 1000 |
| Cn1cc2cc(-n3nc4c(C#N)cn(CC5CC5)c4c(-c4ccc(C(F)(F)F)nc4)c3=O)ccc2n1 [Example 119, 5-(cyclopropylmethyl)-2-(2-methyl-2H-indazol-5-yl)-3-oxo-4-(6-(trifluoromethyl)pyridin-3-yl)-3,5-dihydro-2H-pyrrolo[3,2-c]pyridazine-7-carbonitrile] | > 1000 | > 1000 | < 100 | > 1000 |
| Cn1cc2cc(-n3nc4ccn(CC5CC5)c4c(-c4ccc(C(F)F)nc4)c3=O)ccc2n1 [Example 123, 5-(cyclopropylmethyl)-4-(6-(difluoromethyl)pyridin-3-yl)-2-(2-methyl-2H-indazol-5-yl)-2,5-dihydro-3H-pyrrolo[3,2-c]pyridazin-3-one] | 100 to 1000 | < 100 | < 100 | < 100 |
| Cn1cc2cc(-n3nc4[nH]c(=O)n(CC5CC5)c4c(-c4ccc(OC(F)F)cc4)c3=O)ccc2n1 [Example 197, 5-(cyclopropylmethyl)-4-(4-(difluoromethoxy)phenyl)-2-(2-methyl-2H-indazol-5-yl)-2,7-dihydro-3H-imidazo[4,5-c]pyridazine-3,6(5H)-dione] | 100 to 1000 | < 100 | < 100 | 100 to 1000 |
